Consider one compound from BindingDB's records for patent US20250195475 (Inventisbio, 2025).

In the assay the target is Cyclin-dependent kinase 2/G1/S-specific cyclin-E1 (Homo sapiens, UniProt P24941+P24864). As to the kind of experiment: TR-FRET Assay. The method, then: Compound Preparation. Dissslove the compounds into DMSO solution to make 10 mM DMSO stock. Serially dilute the stock solution from highest concentration down to lowest in DMSO to make the compound stock plate (100× stock plates). To make 5× compound intermediate plate, add 38 μL of assay buffer (50 mM HEPES, pH 7.5, 0.05 mg/mL BSA, 10 mM MgCl2, 1 mM EGTA, 0.01% Tween-20, 2 mM DTT) into each well of the V-bottom plate; then transfer 2 μL of the stock compound solution of each concentration from the compound stock plate (100× stock), and mix well. Enzyme reaction. Transfer 2 μL compound from 5× intermediate plate into assay plate, then add 4 μL/well 2.5× Enzyme mix to assay plate, incubation for 10 min at room temperature. For positive control wells, add 4 μL/well assay buffer instead of Enzyme mix. Then add 4 μL/well 2.5× Substrate mix to assay plate, and incubation at 25° C. for 30 min at room temperature. After reaction, 10 μL 2× Detection mix (final 15 mM EDTA, 1× LANCE Detection Buffer, 0.5 nM Detection antibody) was added and incubated for 1 h prior to detection with excitation and emission at 320 and 665 nm (Tecan Spark TR-FRET mode Tecan).
For orientation: TR-FRET usually uses a lanthanide donor and a delayed reading to cut background.

For `COCc1cc(C(=O)Nc2cc([C@H]3CC[C@@H](OC(=O)N4CCC5(CCC5)C4)C3)[nH]n2)n(C)n1` [US20250195475, Example 6], inhibition was half-maximal at 0.8 nM (IC50).

In general, IC50 refers to the concentration needed to halve the response being measured. High values mean weaker potency, low ones greater potency.
